Data taken from patent US12679836B2, “4H-pyrrolo[3,2-c]pyridin-4-one compounds” (Bayer Aktiengesellschaft, priority 2019, dated 2026).
pIC50: −log10 of the molar value. Where two headings read alike, the source gives them in different places.

Key:
[1] = biological target: Ba/F3-EGFR-WT cells (Homo sapiens, UniProt P00533); assay: Ba/F3 cell survival assay (Cell Titer-Glo), WT EGFR; format: cell-based; conditions: without IL-3, with 10 ng/mL EGF, 48 h; read-out: BA/F3 (wild type) IC50
Protocol: (§1) 293T cells from ATCC were transfected with pBABEpuro expression constructs for WT EGFR or EGFR-insSVD and pCL-Eco packaging vector using Fugene-6 transfection reagent from Promega. Plates were incubated at 37° C. for 48 h. Retrovirus was harvested by filtering the media supernatant through a 0.45 μm filter.
(§2) Ba/F3 cells purchased from DSMZ were grown in RPMI+10% FBS+10 ng/mL IL-3 and infected with filtered retroviral supernatant at a 1:2 dilution. Polybrene was added to a concentration of 8 μg/mL, plates were spun for 90 min, and incubated overnight at 37° C. 2 μg/mL puromycin was added to the infected cells 24 h after infection and cells were continually grown in the presence of puromycin and 10 ng/mL IL-3. Following stably expressing Ba/F3 cell lines were generated: Ba/F3-EGFR-WT, Ba/F3-EGFR-insSVD, (Ba/F3-vector-control).
(§3) For cell survival assays, Ba/F3 cells were grown to a density of 1-2 million cells per mL, spun down and resuspended in media without IL-3, and replated at a concentration 200,000-500,000 cells per mL. The cells ectopically expressing WT EGFR or EGFR-insSVD were plated with 10 ng/mL Millipore Culture grade EGF. The cells ectopically expressing pBABEpuro empty vector were plated with 10 ng/mL IL-3. 2 days later, cells were plated in 50 μL in a 384 well plate at a concentration of 4000 cells per well for cells assayed in the absence of IL-3 and 2000 cells per well for cells assayed in the presence of IL-3. 100 nL of compound was added to each well using a 100 nL pin head, and plates were incubated at 37° C. for 48 h.
(§4) Cell viability was measured by adding 20 μL of Cell Titer-Glo Luminescent Cell Viability Reagent diluted 1:3 in PBS. Plates were sealed with Perkin Elmer Top-Seal, inverted several times to mix, and immediately centrifuged at 1000 rpm for 2 min. Plates were incubated in low light conditions for 8-10 min and luminescence was measured.

[2] = biological target: Ba/F3-EGFR-insSVD cells (Homo sapiens, UniProt P00533, DUP768-770, cells depend on it); assay: Ba/F3 cell survival assay (Cell Titer-Glo), EGFR-insSVD; format: cell-based; conditions: without IL-3, with 10 ng/mL EGF, 48 h; read-out: BA/F3 (insSVD) IC50
Protocol: as §1, §2, §3, §4

[3] = biological target: T1, EGFR with insertion of SVD between D770 and N771 (EGFR ins SVD) (Homo sapiens, UniProt P00533, DUP768-770); assay: Exon20-Mutant-EGFR(D770_N771insSVD) kinase assay (TR-FRET); format: biochemical; conditions: 2 mM ATP, several values per example where printed
T1 construct: made in house; host or cells: Sf9 insect cells (baculovirus)

[4] = biological target: T2, Bub1 (Homo sapiens, UniProt O43683); assay: Bub1 TR-FRET high ATP kinase assay; format: biochemical; conditions: 2 mM ATP
T2 construct: catalytic domain of human Bub1 (amino acids 704-1085); His6 (N); made in house; host or cells: Hi5 insect cells
Excerpt: Bub1 High ATP Kinase Assay
Bub1-inhibitory activity of compounds of the present invention at a high ATP concentration was quantified employing the Bub1 TR-FRET high ATP kinase assay as described in the following paragraphs.
N-terminally His6-tagged recombinant catalytic domain of human Bub1 (amino acids 704-1085), expressed in insect cells (Hi5) and purified by Ni-NTA affinity chromatography and subsequent size exclusion chromatography, was used as enzyme. As substrate for the kinase reaction the biotinylated peptide biotin-Ahx-[…]—SEQ ID 7 (C-terminus in amid form) was used which can be purchased e.g. form the company Biosyntan (Berlin, Germany).

[5] = Bub1 high ATP (2 mM) IC50 [mol/l]

T1 sequence (P00533 with tags, fused parts or gaps DUP768-770): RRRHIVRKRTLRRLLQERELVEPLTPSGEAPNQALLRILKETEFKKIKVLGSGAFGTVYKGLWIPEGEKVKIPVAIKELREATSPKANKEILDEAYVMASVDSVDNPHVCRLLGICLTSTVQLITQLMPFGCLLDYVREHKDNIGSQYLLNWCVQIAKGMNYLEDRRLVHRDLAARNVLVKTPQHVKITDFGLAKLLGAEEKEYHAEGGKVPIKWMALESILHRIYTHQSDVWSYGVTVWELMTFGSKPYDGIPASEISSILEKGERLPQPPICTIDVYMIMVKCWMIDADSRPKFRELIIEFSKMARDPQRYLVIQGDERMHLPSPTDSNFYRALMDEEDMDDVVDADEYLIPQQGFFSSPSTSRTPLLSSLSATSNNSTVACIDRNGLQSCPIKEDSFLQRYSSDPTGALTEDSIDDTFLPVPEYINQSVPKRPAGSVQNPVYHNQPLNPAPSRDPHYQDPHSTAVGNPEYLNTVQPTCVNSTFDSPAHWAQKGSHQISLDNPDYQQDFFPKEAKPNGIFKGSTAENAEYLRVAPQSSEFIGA
Chain of Ba/F3-EGFR-insSVD cells (P00533 with tags, fused parts or gaps DUP768-770): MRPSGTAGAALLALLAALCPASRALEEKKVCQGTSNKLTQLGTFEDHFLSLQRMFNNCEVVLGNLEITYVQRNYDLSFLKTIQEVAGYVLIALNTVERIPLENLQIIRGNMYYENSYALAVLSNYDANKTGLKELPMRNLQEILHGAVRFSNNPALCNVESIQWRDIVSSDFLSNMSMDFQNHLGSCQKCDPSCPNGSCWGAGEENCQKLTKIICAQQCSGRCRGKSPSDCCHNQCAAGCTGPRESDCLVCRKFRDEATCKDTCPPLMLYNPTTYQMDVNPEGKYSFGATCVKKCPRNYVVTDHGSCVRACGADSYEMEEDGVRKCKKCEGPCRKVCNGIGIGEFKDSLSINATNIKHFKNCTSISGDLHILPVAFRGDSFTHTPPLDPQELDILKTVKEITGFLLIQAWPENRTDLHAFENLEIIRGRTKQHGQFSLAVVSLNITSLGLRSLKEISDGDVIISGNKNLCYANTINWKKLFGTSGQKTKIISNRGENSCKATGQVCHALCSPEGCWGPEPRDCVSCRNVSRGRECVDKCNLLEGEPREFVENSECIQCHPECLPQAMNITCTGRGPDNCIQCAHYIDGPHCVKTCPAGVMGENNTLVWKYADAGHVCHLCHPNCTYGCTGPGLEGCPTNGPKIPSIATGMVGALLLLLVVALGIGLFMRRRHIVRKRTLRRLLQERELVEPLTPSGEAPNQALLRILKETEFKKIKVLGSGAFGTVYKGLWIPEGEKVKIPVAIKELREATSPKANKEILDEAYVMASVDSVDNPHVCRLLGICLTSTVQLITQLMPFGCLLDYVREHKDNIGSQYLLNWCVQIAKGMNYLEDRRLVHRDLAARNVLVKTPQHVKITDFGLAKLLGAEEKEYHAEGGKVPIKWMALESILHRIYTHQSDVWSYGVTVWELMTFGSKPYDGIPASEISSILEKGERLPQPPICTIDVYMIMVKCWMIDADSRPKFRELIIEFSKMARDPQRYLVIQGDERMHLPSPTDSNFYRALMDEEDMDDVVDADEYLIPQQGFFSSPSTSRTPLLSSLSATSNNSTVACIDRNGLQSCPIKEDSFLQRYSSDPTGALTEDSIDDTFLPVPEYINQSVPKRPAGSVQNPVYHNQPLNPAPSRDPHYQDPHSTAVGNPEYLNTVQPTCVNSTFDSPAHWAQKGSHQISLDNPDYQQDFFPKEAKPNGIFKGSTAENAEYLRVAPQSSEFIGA
Chain of Ba/F3-EGFR-WT cells (P00533 whole entry, stated change not applied): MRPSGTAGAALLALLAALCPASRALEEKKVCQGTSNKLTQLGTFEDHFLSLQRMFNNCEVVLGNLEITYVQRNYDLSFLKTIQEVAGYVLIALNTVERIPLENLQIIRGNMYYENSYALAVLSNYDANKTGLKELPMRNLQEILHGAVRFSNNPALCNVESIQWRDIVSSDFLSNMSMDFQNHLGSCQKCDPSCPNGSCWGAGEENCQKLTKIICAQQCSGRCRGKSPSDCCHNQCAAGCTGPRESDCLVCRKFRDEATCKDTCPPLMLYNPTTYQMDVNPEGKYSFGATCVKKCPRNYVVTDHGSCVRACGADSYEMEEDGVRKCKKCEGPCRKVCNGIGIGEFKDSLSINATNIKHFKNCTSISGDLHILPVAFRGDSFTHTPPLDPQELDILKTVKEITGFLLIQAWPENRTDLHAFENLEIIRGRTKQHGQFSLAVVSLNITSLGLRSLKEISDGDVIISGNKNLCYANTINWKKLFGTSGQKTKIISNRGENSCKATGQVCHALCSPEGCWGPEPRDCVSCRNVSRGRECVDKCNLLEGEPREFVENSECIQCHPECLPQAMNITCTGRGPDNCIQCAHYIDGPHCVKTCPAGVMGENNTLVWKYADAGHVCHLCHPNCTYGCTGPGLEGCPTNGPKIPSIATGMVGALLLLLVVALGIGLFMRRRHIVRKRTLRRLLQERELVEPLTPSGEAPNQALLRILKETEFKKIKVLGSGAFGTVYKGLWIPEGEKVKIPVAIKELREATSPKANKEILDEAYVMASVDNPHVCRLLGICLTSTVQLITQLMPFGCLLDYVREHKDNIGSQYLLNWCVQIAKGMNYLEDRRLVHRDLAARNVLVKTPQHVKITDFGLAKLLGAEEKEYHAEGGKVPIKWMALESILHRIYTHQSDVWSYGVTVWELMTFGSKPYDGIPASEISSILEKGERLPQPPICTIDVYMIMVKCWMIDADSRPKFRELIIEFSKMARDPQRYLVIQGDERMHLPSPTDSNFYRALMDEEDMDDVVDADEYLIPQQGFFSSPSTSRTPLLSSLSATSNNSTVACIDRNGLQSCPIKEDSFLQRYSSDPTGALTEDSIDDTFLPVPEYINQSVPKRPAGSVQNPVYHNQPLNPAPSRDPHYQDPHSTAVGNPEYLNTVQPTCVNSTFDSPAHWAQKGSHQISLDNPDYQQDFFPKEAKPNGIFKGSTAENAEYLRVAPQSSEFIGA
T2 sequence (O43683 704-1085): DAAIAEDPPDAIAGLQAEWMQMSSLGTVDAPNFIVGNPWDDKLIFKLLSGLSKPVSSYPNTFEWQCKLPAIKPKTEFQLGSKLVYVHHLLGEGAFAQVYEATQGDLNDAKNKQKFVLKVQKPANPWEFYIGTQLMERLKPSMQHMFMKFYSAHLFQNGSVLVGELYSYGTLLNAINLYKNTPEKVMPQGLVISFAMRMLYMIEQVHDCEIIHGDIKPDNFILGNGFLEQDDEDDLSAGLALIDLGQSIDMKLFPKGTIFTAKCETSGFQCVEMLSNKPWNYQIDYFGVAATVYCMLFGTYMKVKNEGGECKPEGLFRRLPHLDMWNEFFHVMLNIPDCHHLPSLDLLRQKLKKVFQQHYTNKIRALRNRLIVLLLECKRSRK

Q: Which GI50 [1] does the source give for `COc1c(Cl)cccc1Nc1c(-c2ccncc2OC(C)C2CN(C)CCO2)[nH]c2c1C(=O)NCC2` (single isomer, unassigned) [Example 75, 3-(3-chloro-2-methoxyanilino)-2-[3-({1-[-4-methylmorpholin-2-yl]ethyl}oxy)pyridin-4-yl]-1,5,6,7-tetrahydro-4H-pyrrolo[3,2-c]pyridin-4-one] here?
A: Its GI50 is 3900 nM.

Q: And the GI50 [2]?
A: Its GI50 is 571 nM.

Q: And the “mutEGFR (D770_N771insSVD) kinase assay IC50” value (“mutEGFR” below) [3]?
A: The value was 4.99 nM.

Q: What about the pIC50 ([4]; read-out: Bub1 high ATP (2 mM) IC50 [mol/l]) of the same molecule?
A: The pIC50 was under 4.70.

Q: For `COc1c(Cl)cccc1Nc1c(-c2ccncc2OCC2COCCO2)[nH]c2c1C(=O)NCC2` (centres unmarked) [Example 1, 3-(3-chloro-2-methoxyanilino)-2-{3-[(1,4-dioxan-2-yl)methoxy]pyridin-4-yl}-1,5,6,7-tetrahydro-4H-pyrrolo[3,2-c]pyridin-4-one], which GI50 [1] is on record?
A: The GI50 was 366 nM.

Q: What about the GI50 [2] of the same molecule?
A: The GI50 was 9.8 nM.

Q: What about the “mutEGFR” value [3] of the same molecule?
A: Its value is 0.159 nM.

Q: And the pIC50 [4, 5]?
A: The pIC50 was 5.47.

Q: What does the source list for `COc1c(F)cccc1Nc1c(-c2ccncc2OCC2COCCO2)[nH]c2c1C(=O)NCC2` (centres unmarked) [Example 4, 2-{3-[(1,4-dioxan-2-yl)methoxy]pyridin-4-yl}-3-(3-fluoro-2-methoxyanilino)-1,5,6,7-tetrahydro-4H-pyrrolo[3,2-c]pyridin-4-one]?
A: GI50 [1]: 452 nM; GI50 [2]: 19.5 nM; mutEGFR (D770_N771insSVD) kinase assay IC50 [3]: 0.256 nM; pIC50 [4, 5]: 4.95

Q: How did the GI50 [1] turn out when `O=C1NCCc2[nH]c(-c3ccncc3OCC3COCCO3)c(Nc3cccc(Cl)c3Cl)c21` (centres unmarked) [Example 7, 3-(2,3-dichloroanilino)-2-{3-[(1,4-dioxan-2-yl)methoxy]pyridin-4-yl}-1,5,6,7-tetrahydro-4H-pyrrolo[3,2-c]pyridin-4-one] was run?
A: The GI50 was 292 nM.

Q: And the GI50 [2]?
A: The GI50 was 18 nM.

Q: And the “mutEGFR” value [3]?
A: Its value is 0.137 nM.

Q: What about the pIC50 [4, 5] of the same molecule?
A: The pIC50 was 4.97.

Q: With `Cc1c(Cl)cccc1Nc1c(-c2ccncc2OCC2COCCO2)[nH]c2c1C(=O)NCC2` (centres unmarked) [Example 10, 3-(3-chloro-2-methylanilino)-2-{3-[(1,4-dioxan-2-yl)methoxy]pyridin-4-yl}-1,5,6,7-tetrahydro-4H-pyrrolo[3,2-c]pyridin-4-one] as the molecule, how does the GI50 [1] read?
A: Its GI50 is 496 nM.

Q: And the GI50 [2]?
A: Its GI50 is 11.1 nM.

Q: What about the “mutEGFR” value [3] of the same molecule?
A: Its value is 0.669 nM.

Q: And the pIC50 [4, 5]?
A: Its pIC50 is 5.75.

Q: Which GI50 [1] does the source give for `COc1c(Cl)cccc1Nc1c(-c2ccncc2OC[C@H]2COCCN2C)[nH]c2c1C(=O)NCC2` [Example 11, 3-(3-chloro-2-methoxyanilino)-2-(3-{[(3R)-4-methylmorpholin-3-yl]methoxy}pyridin-4-yl)-1,5,6,7-tetrahydro-4H-pyrrolo[3,2-c]pyridin-4-one] here?
A: Its GI50 is 701 nM.

Q: And the GI50 [2]?
A: The GI50 was 18.7 nM.

Q: What about the “mutEGFR” value [3] of the same molecule?
A: The value was 0.286 nM.

Q: What about the pIC50 [4, 5] of the same molecule?
A: Its pIC50 is 5.36.

Q: What does the source list for `COc1c(F)cccc1Nc1c(-c2ccncc2OCC2CN(C)CCO2)[nH]c2c1C(=O)NCC2` (centres unmarked) [Example 12, 3-(3-fluoro-2-methoxyanilino)-2-{3-[(4-methylmorpholin-2-yl)methoxy]pyridin-4-yl}-1,5,6,7-tetrahydro-4H-pyrrolo[3,2-c]pyridin-4-one]?
A: GI50 [1]: 574 nM; GI50 [2]: 22.8 nM; mutEGFR (D770_N771insSVD) kinase assay IC50 [3]: 0.0794 nM; pIC50 [4, 5]: < 4.70

Q: Which results are given for `COc1c(Cl)cccc1Nc1c(-c2ccncc2OCC2CN(C)CCO2)[nH]c2c1C(=O)NCC2` (centres unmarked) [Example 15, 3-(3-chloro-2-methoxyanilino)-2-{3-[(4-methylmorpholin-2-yl)methoxy]pyridin-4-yl}-1,5,6,7-tetrahydro-4H-pyrrolo[3,2-c]pyridin-4-one]?
A: GI50 [1]: 426 nM; GI50 [2]: 15.3 nM; mutEGFR (D770_N771insSVD) kinase assay IC50 [3]: 0.151 nM; pIC50 [4, 5]: < 4.70

Q: Which GI50 [1] does the source give for `COc1c(Cl)cc(F)cc1Nc1c(-c2ccncc2OCC2CN(C)CCO2)[nH]c2c1C(=O)NCC2` (centres unmarked) [Example 18, 3-(3-chloro-5-fluoro-2-methoxyanilino)-2-(3-{[4-methylmorpholin-2-yl]methoxy}pyridin-4-yl)-1,5,6,7-tetrahydro-4H-pyrrolo[3,2-c]pyridin-4-one] here?
A: The GI50 was 579 nM.

Q: What about the GI50 [2] of the same molecule?
A: Its GI50 is 27.9 nM.

Q: And the “mutEGFR” value [3]?
A: Its value is 0.147 nM.

Q: What about the pIC50 [4, 5] of the same molecule?
A: The pIC50 was under 4.70.

Q: With `COc1c(Cl)cc(F)cc1Nc1c(-c2ccncc2OCC2COCCO2)[nH]c2c1C(=O)NCC2` (centres unmarked) [Example 19, 3-(3-chloro-5-fluoro-2-methoxyanilino)-2-(3-{[1,4-dioxan-2-yl]methoxy}pyridin-4-yl)-1,5,6,7-tetrahydro-4H-pyrrolo[3,2-c]pyridin-4-one] as the molecule, how does the GI50 [1] read?
A: Its GI50 is 532 nM.

Q: What about the GI50 [2] of the same molecule?
A: The GI50 was 29.1 nM.

Q: And the “mutEGFR” value [3]?
A: The value was 0.113 nM.

Q: What about the pIC50 [4, 5] of the same molecule?
A: The pIC50 was 4.94.

Q: Which GI50 [1] does the source give for `COc1c(F)cccc1Nc1c(-c2ccncc2OC[C@@H]2CN(CC(F)F)CCO2)[nH]c2c1C(=O)NCC2` [Example 22, 2-(3-{[(2S)-4-(2,2-difluoroethyl)morpholin-2-yl]methoxy}pyridin-4-yl)-3-(3-fluoro-2-methoxyanilino)-1,5,6,7-tetrahydro-4H-pyrrolo[3,2-c]pyridin-4-one] here?
A: Its GI50 is 544 nM.

Q: What about the GI50 [2] of the same molecule?
A: The GI50 was 41.9 nM.

Q: And the “mutEGFR” value [3]?
A: The value was 0.153 nM.

Q: And the pIC50 [4, 5]?
A: Its pIC50 is under 4.70.

Q: How did the GI50 [1] turn out when `COc1c(F)cccc1Nc1c(-c2ccncc2OC[C@@H]2CN(CC(F)(F)F)CCO2)[nH]c2c1C(=O)NCC2` [Example 23, 3-(3-fluoro-2-methoxyanilino)-2-(3-{[(2S)-4-(2,2,2-trifluoroethyl)morpholin-2-yl]methoxy}pyridin-4-yl)-1,5,6,7-tetrahydro-4H-pyrrolo[3,2-c]pyridin-4-one] was run?
A: Its GI50 is 648 nM.

Q: And the GI50 [2]?
A: Its GI50 is 71 nM.

Q: What about the “mutEGFR” value [3] of the same molecule?
A: Its value is 0.169 nM.

Q: What about the pIC50 [4, 5] of the same molecule?
A: Its pIC50 is under 4.70.

Q: How did the GI50 [1] turn out when `COc1c(Cl)cccc1Nc1c(-c2ccncc2OCCC2COCCO2)[nH]c2c1C(=O)NCC2` (centres unmarked) [Example 24, 3-(3-chloro-2-methoxyanilino)-2-{3-[2-(4-dioxan-2-yl)ethoxy]pyridin-4-yl}-1,5,6,7-tetrahydro-4H-pyrrolo[3,2-c]pyridin-4-one] was run?
A: Its GI50 is 444 nM.

Q: What about the GI50 [2] of the same molecule?
A: The GI50 was 34.6 nM.

Q: And the “mutEGFR” value [3]?
A: The value was 0.261 nM.

Q: And the pIC50 [4, 5]?
A: Its pIC50 is 5.71.

Q: Which results are given for `COc1c(Cl)cc(F)cc1Nc1c(-c2ccncc2OC[C@@H]2CN(C)CCO2)[nH]c2c1C(=O)NCC2` [Example 27, 3-(3-chloro-5-fluoro-2-methoxyanilino)-2-(3-{[(2S)-4-methylmorpholin-2-yl]methoxy}pyridin-4-yl)-1,5,6,7-tetrahydro-4H-pyrrolo[3,2-c]pyridin-4-one]?
A: GI50 [1]: 502 nM; GI50 [2]: 16.9 nM; mutEGFR (D770_N771insSVD) kinase assay IC50 [3]: 0.118 nM; pIC50 [4, 5]: < 4.70

Q: What does the source list for `COc1c(Cl)cc(F)cc1Nc1c(-c2ccncc2OC[C@@H]2CN(CC(F)(F)F)CCO2)[nH]c2c1C(=O)NCC2` [Example 28, 3-(3-chloro-5-fluoro-2-methoxyanilino)-2-(3-{[(2S)-4-(2,2,2-trifluoroethyl)morpholin-2-yl]methoxy}pyridin-4-yl)-1,5,6,7-tetrahydro-4H-pyrrolo[3,2-c]pyridin-4-one]?
A: GI50 [1]: 1240 nM; GI50 [2]: 126 nM; mutEGFR (D770_N771insSVD) kinase assay IC50 [3]: 0.249 nM; pIC50 [4, 5]: < 4.70

Q: What does the source list for `COc1c(F)cccc1Nc1c(-c2ccncc2OC[C@H]2COCCN2C)[nH]c2c1C(=O)NCC2` [Example 37, 3-(3-fluoro-2-methoxyanilino)-2-(3-{[(3R)-4-methylmorpholin-3-yl]methoxy}pyridin-4-yl)-1,5,6,7-tetrahydro-4H-pyrrolo[3,2-c]pyridin-4-one]?
A: GI50 [1]: 348 nM; GI50 [2]: 35.7 nM; mutEGFR (D770_N771insSVD) kinase assay IC50 [3]: 0.4 nM; pIC50 [4, 5]: 4.72

Q: What does the source list for `Cc1c(F)cccc1Nc1c(-c2ccncc2OCC2COC(C)(C)CO2)[nH]c2c1C(=O)NCC2` (centres unmarked) [Example 38, 2-[3-[(5,5-dimethyl-1,4-dioxan-2-yl)methoxy]-4-pyridyl]-3-(3-fluoro-2-methyl-anilino)-1,5,6,7-tetrahydropyrrolo[3,2-c]pyridin-4-one]?
A: GI50 [1]: 419 nM; GI50 [2]: 29.3 nM; mutEGFR (D770_N771insSVD) kinase assay IC50 [3]: 0.119 nM; pIC50 [4, 5]: < 5.24
